# From the supplement of paper PMC3493320
# Tested on: NCI-H295R
# Test: IC50 (antiproliferative, ATP content)
# Settings: 48 h
# In short: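 Cell viability of adrenocortical carcinoma cells was assessed as ATP by CellTiter-Glo luminescence. Cells at 1500 per well in 1536-well plates, in serum-free DMEM with ITS, received compounds by pin transfer at 8 final concentrations (0.6 nM–46 µM) after overnight culture and were then held 48 h at 37 °C, 5% CO2. IC50 was calculated by logistic fitting against vehicle and positive-control wells, compounds with no concentration response being recorded as above the top dose.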
row,SMILES,IC50 [µM]
1,COc1ccc(C(=O)N2CCN(CC(=O)N3CCOCC3)CC2)cc1,> 46
2,C=CCn1c(=O)n([C@@H]2O[C@H](CO)[C@@H](O)[C@H]2O)c2nc(N)[nH]c(=O)c21,> 46
3,CC[C@H](C)CCCCC(=O)N[C@@H](CCN)C(=O)N[C@H](C(=O)N[C@@H](CCN)C(=O)N[C@H]1CCNC(=O)[C@H]([C@@H](C)O)NC(=O)[C@H](CCN)NC(=O)[C@H](CCN)NC(=O)[C@H](CC(C)C)NC(=O)[C@@H](CC(C)C)NC(=O)[C@H](CCN)NC1=O)[C@@H](C)O.O=S(=O)(O)O,> 46
4,CCCCCCCCCCCCCCCCOP(=O)([O-])OCC[N+](C)(C)C,> 46
5,C[C@]12CCC(=O)C=C1CC[C@@H]1[C@@H]2[C@@H](O)C[C@@]2(C)[C@H]1CC[C@]2(O)C(=O)COP(=O)([O-])[O-].[Na+].[Na+],> 46
6,NC(CNC([C@H](CC(C)C)N[C@]([C@@H]1CCCN1[C@]([C@H](CSSC[C@H](N)C(N[C@@H](CC3=CC=C(O)C=C3)C2=O)=O)NC([C@H](CC(N)=O)NC([C@@H](NC([C@](N2)([H])[C@@H](C)CC)=O)CCC(N)=O)=O)=O)=O)=O)=O)=O.O=C(C)O,> 46
7,CCN1CCCC(OC(=O)C(c2ccccc2)c2ccccc2)C1.Cl (stereo unspecified),> 46
8,CN1CCN(c2c(F)cc3c(=O)c(C(=O)O)cn(CCF)c3c2F)CC1,> 46
9,CC(=O)OCC(=O)C1CCC2C3CCC4CC(O)CCC4(C)C3C(=O)CC12C (stereo unspecified),> 46
10,CCNC1(c2cccs2)CCCCC1=O.Cl (stereo unspecified),> 46
11,COP(=O)(OC)C(O)C(Cl)(Cl)Cl (stereo unspecified),> 46
12,CCC1(c2ccccc2)C(=O)NC(=O)N(C(=O)c2ccccc2)C1=O (stereo unspecified),> 46
13,OC(C#CCN1CCCC1)(c1ccccc1)c1ccccc1,> 46
14,CCC1C2CC3[C@@H]4N(C)c5ccccc5C45CC(C2[C@H]5O)N3[C@@H]1O (stereo partly specified),> 46
15,COc1ccc(C[C@@H](C)NC[C@H](O)c2ccc(O)c(NC=O)c2)cc1.COc1ccc(C[C@@H](C)NC[C@H](O)c2ccc(O)c(NC=O)c2)cc1.O=C(O)/C=C/C(=O)O,> 46
16,O.O.O.O.O.O.O=P([O-])([O-])OP(=O)([O-])OP(=O)([O-])[O-].[Na+].[Na+].[Na+].[Na+].[Na+],> 46
17,CC(O)CN(CCN(CC(C)O)CC(C)O)CC(C)O (stereo unspecified),> 46
18,CCCCCCCCC(=O)NCc1ccc(O)c(OC)c1,> 46
19,COc1cc(/C=C/C(=O)CC(=O)/C=C/c2ccc(O)c(OC)c2)ccc1O,> 46
20,F[Si-2](F)(F)(F)(F)F.[NH4+].[NH4+],> 46
21,CN(C)CCN1C(=O)c2ccccc2N(C)c2ccccc21.Cl,> 46
22,Cc1cnc(NC(=O)C2=C(O)c3ccccc3S(=O)(=O)N2C)s1,> 46
23,CN1C(=O)C(=NNC(N)=S)c2ccccc21,> 46

row,SMILES,IC50 [µM]
1,F[C@]1([C@](C[C@@H]4F)([H])[C@@]3([H])[C@]([C@@]([C@H](C)C3)(O)[C@@](CO)=O)(C)C[C@@H]1O)[C@](C=C2Cl)(C)C4=CC2=O.O,> 46
2,CCCCC(CC)COS(=O)(=O)[O-].[Na+] (stereo unspecified),> 46
3,NCC(O)c1ccc(O)cc1 (stereo unspecified),> 46
4,CCCCN(CCCC)CCCOC(=O)c1ccc(N)cc1,> 46
5,CCC(C)(S(=O)(=O)CC)S(=O)(=O)CC,> 46
6,Cc1ccc(C(C)C)c(O)c1,> 46
7,NS(=O)(=O)c1cc(C2(O)NC(=O)c3ccccc32)ccc1Cl (stereo unspecified),> 46
8,O=c1n(Cl)c(=O)n(Cl)c(=O)n1Cl,> 46
9,CNc1cc(OC)c(C(=O)N[C@H]2CCN(Cc3ccccc3)[C@H]2C)cc1Cl,> 46
10,COP(=O)(OC)OC(c1ccc(Cl)cc1)P(=O)(OC)OC (stereo unspecified),> 46
11,CS(=O)(=O)c1ccc([C@@H](O)[C@@H](CF)NC(=O)C(Cl)Cl)cc1,> 46
12,CN[C@H](CC(C)C)C(=O)N[C@H]1C(=O)N[C@@H](CC(N)=O)C(=O)N[C@H]2C(=O)N[C@H]3C(=O)N[C@H](C(=O)N[C@@H](C(=O)O)c4cc(O)cc(O)c4-c4cc3ccc4O)[C@H](O)c3ccc(c(Cl)c3)Oc3cc2cc(c3O[C@@H]2O[C@H](CO)[C@@H](O)[C@H](O)[C@H]2O[C@H]2C[C@](C)(N)C(O)[C@H](C)O2)Oc2ccc(cc2Cl)[C@H]1O.Cl (stereo partly specified),> 46
13,C[C@]12CCC(=O)C(O)=C1CC[C@@H]1[C@@H]2CC[C@]2(C)C(=O)CC[C@@H]12,> 46
14,Cc1nc[nH]c1CN1CCc2c(c3ccccc3n2C)C1=O.Cl,> 46
15,O=C(O)COC(=O)Cc1ccccc1Nc1c(Cl)cccc1Cl,> 46
16,C[C@H]1CC[C@]2(NC1)O[C@H]1C[C@H]3[C@@H]4CC[C@H]5C[C@@H](O)CC[C@]5(C)[C@H]4CC[C@]3(C)[C@H]1[C@@H]2C.Cl,> 46
17,CCC(C(=O)OCCOCCN(CC)CC)c1ccccc1.O=C(O)CC(O)(CC(=O)O)C(=O)O (stereo unspecified),> 46
18,CN1CCN2c3ccccc3Cc3ccccc3C2C1 (stereo unspecified),> 46
19,OC(CN1CCC(Cc2ccc(F)cc2)CC1)c1ccc(Cl)cc1 (stereo unspecified),> 46
20,CCN(CC)CCOC(=O)C(C)(c1ccccc1)c1ccccc1,> 46
21,C/C(=C(/CCOP(=O)(O)O)SC(=O)c1ccccc1)N(C=O)Cc1cnc(C)nc1N,> 46
22,CC(=O)Oc1c(C)c(C)c2c(c1C)CCC(C)(CCCC(C)CCCC(C)CCCC(C)C)O2 (stereo unspecified),> 46
23,CCCN[C@H]1CCc2nc(N)sc2C1,> 46
